Values quoted from earlier work as cited in patent publication US20110038852A1, “ANTIVIRALS THAT TARGET TRANSPORTERS, CARRIERS, AND ION CHANNELS” (3-V BIOSCIENCES, INC., priority 2009, published 2011).

Key:
rhinoviral infections = conditions: volunteers, clinical trials

Row | Compound | mucus secretions and illness-associated symptoms (rhinoviral infections) | side effects (rhinovirus infections; human, in vivo) | effect against rhinovirus infections (rhinovirus infections; used intranasally)
1 | Cc1cc(CCCOc2c(C)cc(-c3noc(C(F)(F)F)n3)cc2C)on1 [Pleconaril] | significant decrease | – | –
2 | Interferon-alpha | – | nasal bleeding | effective
